Experiments:
[1] = system: E. faecalis (CL 4877); assay: Zone of inhibition screen, 96 well agar array format; format: cell-based; parameters: scale not given here; details: zone of inhibition relative to 1 mg/ml stock solution of p-chlorobiphenylvancomycin
Outline: (§1)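 Each compound was tested for antibacterial activity against a shared bacterial panel, with screening carried out on agar in a 96-well array.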

[2] = system: E. faecalis (ATCC 292121); assay: as above; format: cell-based; details: zone of inhibition relative to 1 mg/ml stock solution of p-chlorobiphenylvancomycin
Experimental: The antibacterial activity of each of the compounds against the bacterial strains E. faceium (ATCC 49624), S. epidermidis (ATCC 12228), S. aureus (ATCC 29213), E. faecalis (CL 4877) and E. faecalis (ATCC 292121) was tested. Each of the compounds was screened in a 96 will agar array format.

[3] = system: S. aureus (ATCC 29213); assay: as above; format: cell-based; parameters: scale not given here; details: zone of inhibition relative to 1 mg/ml stock solution of p-chlorobiphenylvancomycin
Outline: as §1

[4] = system: E. faecium ATCC 49624; assay: MIC determination in BHI media, OD600; format: cell-based; details: BHI + 0.1% casamino acids, 18 hours at 37° C., ≧90% OD600 inhibition
Outline: (§2)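 Log-phase bacteria were diluted to about 5×10^5 CFU/ml and exposed to test compounds serially diluted in DMSO. Following 18 hours at 37° C, growth was read by plate absorbance to assign the MIC.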

[5] = system: S aureus ATCC 29213; assay: MIC determination in BHI media, OD600; format: cell-based; details: BHI + 0.1% casamino acids, 18 hours at 37° C., ≧90% OD600 inhibition
Outline: as §2

[6] = system: E. faecalis ATCC 29212; assay: MIC determination in BHI media, OD600; format: cell-based; details: BHI + 0.1% casamino acids, 18 hours at 37° C., ≧90% OD600 inhibition
Outline: as §2

[7] = system: S. Aureus ATCC 33591; assay: MIC determination in BHI media, OD600; format: cell-based; details: BHI + 0.1% casamino acids, 18 hours at 37° C., ≧90% OD600 inhibition
Outline: as §2

[8] = system: E. faceium (ATCC 49624); assay: Zone of inhibition screen, 96 well agar array format;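 also: score 3 means fourfold and score 4 sixteenfold the reference zone size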; format: cell-based, E. faecium; details: zone of inhibition relative to 1 mg/ml stock solution of p-chlorobiphenylvancomycin
Outline: as §1

[9] = system: E. faecium CL 4931; assay: MIC determination in BHI media, OD600; format: cell-based; details: BHI + 0.1% casamino acids, 18 hours at 37° C., ≧90% OD600 inhibition
Outline: as §2

[10] = system: S. epidermidis (ATCC 12228); assay: Zone of inhibition screen, 96 well agar array format; format: cell-based; parameters: scale not given here; details: zone of inhibition relative to 1 mg/ml stock solution of p-chlorobiphenylvancomycin
Outline: as §1

[11] = system: E. Faecalis CL 4877; assay: MIC determination in BHI media, OD600; format: cell-based; details: BHI + 0.1% casamino acids, 18 hours at 37° C., ≧90% OD600 inhibition
Outline: as §2
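For zone score, E. faecalis ATCC 29212 in this document: score 3 means fourfold and score 4 sixteenfold the reference zone size.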

Structure (SMILES) | zone score, E. faecalis CL 4877 [1] | zone score, E. faecalis ATCC 29212 [2] | zone score, S. aureus ATCC 29213 [3] | MIC E. faecium ATCC 49624 [4] [µg/mL] | MIC S. aureus ATCC 29213 [5] [µg/mL] | MIC E. faecalis ATCC 29212 [6] [µg/mL] | MIC S. aureus ATCC 33591 [7] [µg/mL] | zone score, E. faecium ATCC 49624 [8] | MIC E. faecium CL 4931 [9] [µg/mL] | zone score, S. epidermidis ATCC 12228 [10] | MIC E. faecalis CL 4877 [11] [µg/mL]
CNCC(=O)N[C@H]1C(=O)N[C@@H](CC(N)=O)C(=O)N[C@H]2C(=O)N[C@H]3C(=O)N[C@H](C(=O)N[C@@H](C(=O)O)c4cc(O)cc(O)c4-c4cc3ccc4O)[C@H](O)c3ccc(c(Cl)c3)Oc3cc2cc(c3O[C@@H]2O[C@H](CO)[C@@H](O)[C@H](O)[C@H]2O[C@@H]2C[C@@](C)(NCc3ccc(-c4ccc(Cl)cc4)cc3)[C@@H](O)[C@@H](C)O2)Oc2ccc(cc2Cl)[C@H]1O [Compound 8] | 2 | 2 |  |  |  |  |  |  |  |  | 
C[C@H]1O[C@H](O[C@H]2[C@H](Oc3c4cc5cc3Oc3ccc(cc3Cl)[C@@H](O)[C@@H](NC(=O)[C@H](N)Cc3c[nH]c6ccccc36)C(=O)N[C@@H](CC(N)=O)C(=O)N[C@H]5C(=O)N[C@H]3C(=O)N[C@H](C(=O)N[C@@H](C(=O)O)c5cc(O)cc(O)c5-c5cc3ccc5O)[C@H](O)c3ccc(c(Cl)c3)O4)O[C@H](CO)[C@@H](O)[C@@H]2O)C[C@@](C)(NCc2ccc(-c3ccc(Cl)cc3)cc2)[C@H]1O [Compound 25] | 2 | 2 | 2 | 0.25 | 0.25 | 0.39 | 0.25 | 2 |  |  | 
C[C@H]1O[C@H](O[C@H]2[C@H](Oc3c4cc5cc3Oc3ccc(cc3Cl)[C@@H](O)[C@@H](NC(=O)CN)C(=O)N[C@@H](CC(N)=O)C(=O)N[C@H]5C(=O)N[C@H]3C(=O)N[C@H](C(=O)N[C@@H](C(=O)O)c5cc(O)cc(O)c5-c5cc3ccc5O)[C@H](O)c3ccc(c(Cl)c3)O4)O[C@H](CO)[C@@H](O)[C@@H]2O)C[C@@](C)(NCc2ccc(-c3ccc(Cl)cc3)cc2)[C@H]1O [Compound 28] | 2 | 2 |  |  |  |  |  | 2 |  |  | 
CC1OC(OC2C(Oc3c4cc5cc3Oc3ccc(cc3Cl)C(O)C3NC(=O)C(NC(=O)C5NC(=O)C(CC(N)=O)NC(=O)C(NC(=O)C(N)CCC(N)=O)C(O)c5ccc(c(Cl)c5)O4)c4ccc(O)c(c4)-c4c(O)cc(O)cc4C(C(=O)O)NC3=O)OC(CO)C(O)C2O)CC(C)(NCc2ccc(-c3ccc(Cl)cc3)cc2)C1O (stereo not shown) [Compound 57] |  | 2 |  |  |  |  |  | 2 |  |  | 
CC(O)C(N)C(=O)NC1C(=O)NC(CC(N)=O)C(=O)NC2C(=O)NC3C(=O)NC(C(=O)NC(C(=O)O)c4cc(O)cc(O)c4-c4cc3ccc4O)C(O)c3ccc(c(Cl)c3)Oc3cc2cc(c3OC2OC(CO)C(O)C(O)C2OC2CC(C)(NCc3ccc(-c4ccc(Cl)cc4)cc3)C(O)C(C)O2)Oc2ccc(cc2Cl)C1O (stereo not shown) [Compound 64] | 2 | 2 |  | 0.39 | 0.78 |  | 0.78 |  | 25 |  | 
CC1OC(OC2C(Oc3c4cc5cc3Oc3ccc(cc3Cl)C(O)C3NC(=O)C(NC(=O)C5NC(=O)C(CC(N)=O)NC(=O)C(NC(=O)C(N)CCCCNC(=O)CCCCC5SCC6NC(=O)NC65)C(O)c5ccc(c(Cl)c5)O4)c4ccc(O)c(c4)-c4c(O)cc(O)cc4C(C(=O)O)NC3=O)OC(CO)C(O)C2O)CC(C)(NCc2ccc(-c3ccc(Cl)cc3)cc2)C1O (stereo not shown) [Compound 75] | 2 | 2 |  | 0.39 |  |  |  | 2 | 25 | 2 | 25
C[C@H]1O[C@H](O[C@H]2[C@H](Oc3c4cc5cc3Oc3ccc(cc3Cl)[C@@H](O)[C@@H](NC(=O)[C@H](N)Cc3cccnc3)C(=O)N[C@@H](CC(N)=O)C(=O)N[C@H]5C(=O)N[C@H]3C(=O)N[C@H](C(=O)N[C@@H](C(=O)O)c5cc(O)cc(O)c5-c5cc3ccc5O)[C@H](O)c3ccc(c(Cl)c3)O4)O[C@H](CO)[C@@H](O)[C@@H]2O)C[C@@](C)(NCc2ccc(-c3ccc(Cl)cc3)cc2)[C@H]1O [Compound 556] |  |  |  | 0.39 | 0.78 | 0.78 | 0.39 |  | 25 |  | 25

Reference: patent US6518243B1, “Desleucyl glycopeptide antibiotics and methods of making same” (Trustees of Princeton University, priority 1999, dated 2003)
